Columns and labels:
[1] = molecular target: T1, native GSMT (glycine sarcosine N-methyltransferase) (Methanohalophilus portucalensis, UniProt F6KV61); test: radiometric [methyl-3H]-SAM methyl transfer, charcoal separation; assay type: biochemical; details: read-out: I50
T1 construct: monomer and dimer fractions pooled
T1 sequence (F6KV61 1-263): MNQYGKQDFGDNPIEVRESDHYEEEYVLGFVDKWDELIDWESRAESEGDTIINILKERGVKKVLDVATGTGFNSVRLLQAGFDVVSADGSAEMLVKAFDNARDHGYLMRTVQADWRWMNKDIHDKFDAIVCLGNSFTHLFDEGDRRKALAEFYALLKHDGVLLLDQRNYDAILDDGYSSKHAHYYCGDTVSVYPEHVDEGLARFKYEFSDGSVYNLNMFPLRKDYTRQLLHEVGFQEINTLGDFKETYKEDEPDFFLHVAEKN

[2] = molecular target: T1, native GSMT (glycine sarcosine N-methyltransferase); test: as above; assay type: biochemical

| IC50 [1] [µM] | remaining activity at 1 M [2] [%] | SMILES |
| --- | --- | --- |
| 50 |  | Nc1ncnc2c1ncn2[C@@H]1O[C@H](CSCC[C@H](N)C(=O)O)[C@@H](O)[C@H]1O [SAH, S-adenosylhomocysteine] |
|  | 43 | C[N+](C)(C)CC(=O)[O-] [betaine] |

From PMC5201303, “Comparison of Enzymatic Traits between Native and Recombinant Glycine Sarcosine N-Methyltransferase from Methanohalophilus portucalensis FDF1^T” (PLoS ONE, 2016)
